melting point [°C]	Compound
117 to 119	CN(N)C(=O)Nc1ccccc1Oc1ccccc1
190 to 195	Nc1nc(Cl)c2ncn(OCCOCP(=O)(O)O)c2n1
91 to 93	C=C(c1ccc(OC)c(N)c1)c1ccc(OC)c(OCC)c1
94	CC(C)(C)OC(=O)C(Nc1ccccc1)C(=O)OC(C)(C)C
116 to 118	C[C@@H](CNC(=O)OC(C)(C)C)c1ccc(O)c(O)c1
179 to 181	O=C1CCn2c1c(Sc1ccccc1)c1ccccc12
149 to 150	C=C(C)COc1cc(C)c(NC(C)=O)c(C)c1C
132 to 133	CC(C)c1ccccc1Sc1c(O)cc(-c2ccc(OCCCc3ccccc3)cc2)oc1=O
116 to 118	CC(=O)NC(CSC(=O)C(C)C)C(=O)NCCSC(C)=O (stereo not given)
174 to 175	CCCc1nc2c(N)nc3cccnc3c2n1CCCCS(=O)(=O)NC
55 to 59	C=C(c1ccccc1)c1cccc(NS(=O)(=O)C(F)(F)F)c1
113 to 115	COC(=O)CSc1ncnc(N2CCc3ccccc3CC2)c1[N+](=O)[O-]
90 to 93	CCN(CC)C(=S)SCCNC(=O)CCNC(=O)OCc1ccccc1
130 to 135	O=c1oc(-c2ccccc2)cc(O)c1N(Cc1ccccc1)Cc1ccccc1
155 to 157	CC(=O)NCCCn1c(-c2ccc(Br)cc2)csc1=Nc1ccccc1
185 to 187	COC1=CN=C(COC(c2ccccc2)(c2ccccc2)c2ccccc2)CC1=O
167 to 171	CCOC(=O)c1ccc2c(c1)S[C@@H](c1ccc(OC)cc1)[C@@H](OC(C)=O)C(=O)N2CCN(C)C (racemic)
155 to 156	CC(C)(C)OC(=O)n1ncc2ccc(NC(=O)c3ccccc3O)cc21
35.5 to 36.5	CCOC(=O)Cc1csc(-c2ccccc2O)n1
213 to 215	Cc1ccccc1CCCc1c(C)nc(N)nc1N
131 to 132	COc1ccc2c(c1)C(C(=O)N(Cc1ccc(S(C)(=O)=O)cc1)c1ccc(C(C)C)cc1)CCC2 (stereo not given)
150 to 151	CCOP(=O)(OCC)c1nc(Nc2ccccc2)nc(N2CCCC2)n1
> 260	CSc1cc2c(cc1SC)C(=O)c1cc3ccccc3cc1C2=O

melting point [°C]	Compound
26 to 28	N#C/C=C/c1cccc(Cl)c1
240 to 241	CNNC(=O)c1ccc(C(=O)NNC)cc1
96 to 97	CC(C)(CO)CCCC(O)CCC(O)CCCC(C)(C)CO (stereo not given)
96 to 98	CCOC1Nc2c(Br)cc(Br)cc2S(=O)(=O)N1 (stereo not given)
163	CC(=O)Oc1cccc(C(=Cc2ccccc2)c2cccc(OC(C)=O)c2OC(C)=O)c1OC(C)=O
150	CC(C)OC(=O)c1cccc(C(O)(c2ccc3c(c2)c(-c2cccc(Cl)c2)cc(=O)n3C)c2cncn2C)c1 (stereo not given)
180	COc1ccc(OC)c(S(=O)(=O)c2ccc(Cl)cc2NC(=O)N[C@@H](Cc2ccc(NC(=O)c3c(Cl)cccc3Cl)cc2)C(=O)O)c1
188 to 189	O=c1ccn([C@H]2C=C[C@@H](O)C2)cc1 (racemic)
236	Cc1cc2c(=O)n(CCN3CCC(Nc4nc5ccccc5n4Cc4ccc(F)cc4)CC3)c(=S)[nH]c2s1
83	CCCCC(=O)NC(=O)C(c1ccccc1)c1ccccc1
300	Cc1nc2c(cnn2-c2c(Cl)cc(C(F)(F)F)cc2Cl)c(=O)[nH]1
215	C#Cc1cc2cccnc2c(-c2cccc([N+](=O)[O-])c2)n1
190 to 192	COc1ccc(-c2csc(Nc3ccc(C)cn3)n2)cc1OC
144 to 149	CC(=O)N(C)c1cc(OCc2ccccc2)c2nc(C)n(C)c2c1
278 to 283	COc1ccc(C(=O)NC(=O)Nc2ccc3c(c2)NC(=O)/C3=C/c2ccco2)cc1
178	COC(=O)CCC(=O)c1ccc(NC(=O)C(C)C)c(N)c1
158 to 162	NC(=O)[C@@H]1C[C@H](S)CN1C(=O)OCc1ccc([N+](=O)[O-])cc1
215 to 220	CCCNC(=O)C(C#N)=C1Nc2ccccc2O1
184	OC1CSC(Oc2cccnc2-c2ccco2)C(O)C1O (stereo not given)
166	COC(=O)c1cc(OCc2ccccc2)c2nc(C)n(C)c2c1
> 280	Oc1cc2[nH]c3c(O)c(O)ccc3c2cc1O
168 to 170	Cc1cnc(CNC(=O)c2c(-c3ccccc3)c(-c3ccc(F)cc3)c(/C=C\[C@@H](O)C[C@@H](O)CC(=O)OC(C)(C)C)n2C(C)C)cn1
181	CCOC(=O)c1cc(-c2ccc(-c3ccco3)cc2)n(-c2ccc(S(C)(=O)=O)cc2)n1

melting point [°C]	Compound
144 to 147	CCCCc1nc(Cl)c(CO)n1Cc1ccc(NC(=O)C(NC(=O)OC(C)(C)C)C(=O)O)cc1 (racemic)
279 to 281	Cc1cc2c(-c3cccnc3)c(CC(=O)O)c(=O)oc2cc1Cl
50	COC(=O)CCC/C=C/c1ccc2cc(C)ccc2c1
121 to 126	CCCCCCCN(C[C@H]1CCC[C@H](CN(CCCCCCC)C(=O)Nc2ccc(N(C)C)cc2)C1)C(=O)Nc1ccc(N(C)C)cc1 (relative stereo)
98 to 100	CCc1nc(-c2cccc(C)c2)c(-c2ccnc(NC(=O)C3CCCCC3)c2)s1
143 to 144	COc1ccc(CC(=O)O)c(OCCCc2cn(-c3ccc(C(F)(F)F)cn3)nc2C(C)C)c1
220 to 222	CSc1nc2c(cc1F)c(=O)[nH]c(=O)n2C1CC1
154 to 155	O=C(Nc1ccc(-n2nc(C(F)(F)F)cc2OC(F)F)cc1)c1ccncc1
231	O=C(Nc1ccc(Cl)c(C(F)(F)F)c1)c1ccccc1NCc1ccc(=O)[nH]c1
92 to 93	CCOCc1cc2c(s1)CCCc1cc(=O)n(-c3ccc(C)cc3)nc1-2
63 to 67	O=C1c2cc(Br)ccc2CCC1Cc1cccnc1 (stereo not given)
80 to 83	CCCCCCCCCCCCCCCCCC(=O)NCCOCCn1c(CCOC)nc2c(N)nc3ccccc3c21
89 to 91	Cc1sc(-c2ccccc2)nc1CCOc1ccc(N)cn1
93 to 94	CCCCCCCN(CCN1CCN(CCCSc2nc3ccccc3o2)CC1)C(=O)Nc1c(C(C)C)cccc1C(C)C
97 to 98	Cc1cc(Cl)ccc1Cn1nc(OC(C)C)cc1CCCOc1ncccc1CC(=O)O
208 to 210	Cc1nnnn1/C=C\SC(c1ccccc1)(c1ccccc1)c1ccccc1
69 to 72	COc1cc(OC)c(CSC(C)(C)CCO)c(OC)c1
187 to 188	CCOCc1nc2c(N)nc3ccccc3c2n1CC(=O)CC
85 to 86	COc1cc(OC)cc(-c2nc(CCl)co2)c1
166 to 169	NC(=O)c1ccc(NCc2ccc(F)cc2)cn1
114 to 116	NC(=NC(=O)c1nc(Cl)c(N)nc1N)NCCCCc1ccc(OCC(=O)N(CCO)CCO)cc1
143 to 144	COc1ccc(C2=NN(C3CCN(S(=O)(=O)c4ccccc4OC(F)(F)F)CC3)C(=O)C(C)(C)C2)cc1OC

Compound	melting point [°C]
N#CC1(Nc2ccc(Cl)cc2)CCN(C(=O)c2cc(C(F)(F)F)cc(C(F)(F)F)c2)CC1	176 to 180
CC1(C)CCc2ccc(O)cc21	84.5 to 86.5

— a melting point compilation (Tetko et al.; mined from patent text by program, amines drawn as free bases though some values may be those of a salt)
